According to PubChem BioAssay AID1963975 (Molecular Pharmacology Branch, DTP, NCI, 2024):
pIC50: −log10 of the molar value. Values belong to the compound of their own block, whether it stands above or below them.

Test system: 624824-186-R-J2-PDC multicell spheroids, viability
Experiment: Anticancer human tumor 624824-186-R-J2-PDC patient-derived colon adenocarcinoma cell line growth inhibition [PI3K]
Details: for viability, T/C: stronger effect = lower value
Summary of the method: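 Spheroid viability read-out. Co-cultures contained the tumor line plus HUVEC and human MSCs. Each agent was paired with a PI3K inhibitor (inavolisib, alpelisib, duvelisib, copanlisib) across half-log dilutions starting at clinical Cmax, or at 10 microM when Cmax was unknown.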

[1] = curve of first compound, second compound 0.00316 µM
[2] = curve of first compound, second compound 0.01 µM
[3] = curve of first compound, second compound 0.0316 µM
[4] = curve of first compound, second compound 0.1 µM
[5] = curve of first compound, second compound 0.316 µM
[6] = curve of first compound, second compound 1 µM
[7] = second compound 0.00316 µM, first compound 0.000316 µM
[8] = second compound 0.00316 µM, first compound 0.001 µM
[9] = second compound 0.00316 µM, first compound 0.00316 µM
[10] = second compound 0.00316 µM, first compound 0.01 µM
[11] = second compound 0.00316 µM, first compound 0.0316 µM
[12] = second compound 0.00316 µM, first compound 0.1 µM
[13] = second compound 0.01 µM, first compound 0.000316 µM
[14] = second compound 0.01 µM, first compound 0.001 µM
[15] = second compound 0.01 µM, first compound 0.00316 µM
[16] = second compound 0.01 µM, first compound 0.01 µM
[17] = second compound 0.01 µM, first compound 0.0316 µM
[18] = second compound 0.01 µM, first compound 0.1 µM
[19] = second compound 0.0316 µM, first compound 0.000316 µM
[20] = second compound 0.0316 µM, first compound 0.001 µM
[21] = second compound 0.0316 µM, first compound 0.00316 µM
[22] = second compound 0.0316 µM, first compound 0.01 µM
[23] = second compound 0.0316 µM, first compound 0.0316 µM
[24] = second compound 0.0316 µM, first compound 0.1 µM
[25] = second compound 0.1 µM, first compound 0.000316 µM
[26] = second compound 0.1 µM, first compound 0.001 µM
[27] = second compound 0.1 µM, first compound 0.00316 µM
[28] = second compound 0.1 µM, first compound 0.01 µM
[29] = second compound 0.1 µM, first compound 0.0316 µM
[30] = second compound 0.1 µM, first compound 0.1 µM
[31] = second compound 0.316 µM, first compound 0.000316 µM
[32] = second compound 0.316 µM, first compound 0.001 µM
[33] = second compound 0.316 µM, first compound 0.00316 µM
[34] = second compound 0.316 µM, first compound 0.01 µM
[35] = second compound 0.316 µM, first compound 0.0316 µM
[36] = second compound 0.316 µM, first compound 0.1 µM
[37] = second compound 1 µM, first compound 0.000316 µM
[38] = second compound 1 µM, first compound 0.001 µM
[39] = second compound 1 µM, first compound 0.00316 µM
[40] = second compound 1 µM, first compound 0.01 µM
[41] = second compound 1 µM, first compound 0.0316 µM
[42] = second compound 1 µM, first compound 0.1 µM
[43] = second compound 0.0316 µM, first compound 0.316 µM
[44] = second compound 0.0316 µM, first compound 1 µM
[45] = second compound 0.0316 µM, first compound 3.16 µM
[46] = second compound 0.0316 µM, first compound 10 µM
[47] = second compound 0.1 µM, first compound 0.316 µM
[48] = second compound 0.1 µM, first compound 1 µM
[49] = second compound 0.1 µM, first compound 3.16 µM
[50] = second compound 0.1 µM, first compound 10 µM
[51] = second compound 0.316 µM, first compound 0.316 µM
[52] = second compound 0.316 µM, first compound 1 µM
[53] = second compound 0.316 µM, first compound 3.16 µM
[54] = second compound 0.316 µM, first compound 10 µM
[55] = second compound 1 µM, first compound 0.316 µM
[56] = second compound 1 µM, first compound 1 µM
[57] = second compound 1 µM, first compound 3.16 µM
[58] = second compound 1 µM, first compound 10 µM
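Note: spheroids exposed to agents for 7 days before viability read.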
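Throughout, for viability, T/C: 100% = DMSO vehicle treated spheroids.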

Compound: CNC(=O)c1ccc(N2C(=S)N(c3ccc(C#N)c(C(F)(F)F)c3)C(=O)C2(C)C)cc1F + CC(Nc1ncnc2nc[nH]c12)c1cc2cccc(Cl)c2c(=O)n1-c1ccccc1
pIC50 [3]: < 5.00
pIC50 [4]: < 5.00
pIC50 [5]: < 5.00
pIC50 [6]: < 5.00
pIC50 (curve of first compound, second compound 3.16 µM): < 5.00
pIC50 (curve of first compound, second compound 10 µM): < 5.00
viability, T/C [23]: 94.8%
viability, T/C [24]: 95.8%
viability, T/C [43]: 74.2%
viability, T/C [44]: 98.4%
viability, T/C [45]: 102%
viability, T/C [46]: 116%
viability, T/C [29]: 104%
viability, T/C [30]: 101%
viability, T/C [47]: 100%
viability, T/C [48]: 95.8%
viability, T/C [49]: 86.5%
viability, T/C [50]: 124%
viability, T/C [35]: 106%
viability, T/C [36]: 114%
viability, T/C [51]: 78.8%
viability, T/C [52]: 95.4%
viability, T/C [53]: 93.1%
viability, T/C [54]: 101%
viability, T/C [41]: 94.9%
viability, T/C [42]: 92.2%
viability, T/C [55]: 101%
viability, T/C [56]: 84.4%
viability, T/C [57]: 122%
viability, T/C [58]: 117%
viability, T/C (second compound 3.16 µM, first compound 0.0316 µM): 115%
viability, T/C (second compound 3.16 µM, first compound 0.1 µM): 79.2%
viability, T/C (second compound 3.16 µM, first compound 0.316 µM): 91.1%
viability, T/C (second compound 3.16 µM, first compound 1 µM): 127%
viability, T/C (second compound 3.16 µM, first compound 3.16 µM): 83.2%
viability, T/C (second compound 3.16 µM, first compound 10 µM): 96.9%
viability, T/C (second compound 10 µM, first compound 0.0316 µM): 101%
viability, T/C (second compound 10 µM, first compound 0.1 µM): 120%
viability, T/C (second compound 10 µM, first compound 0.316 µM): 107%
viability, T/C (second compound 10 µM, first compound 1 µM): 90.7%
viability, T/C (second compound 10 µM, first compound 3.16 µM): 101%
viability, T/C (second compound 10 µM, first compound 10 µM): 117%

Compound: C=CC(=O)N1CCN(c2nc(=O)n(-c3c(C)ccnc3C(C)C)c3nc(-c4c(O)cccc4F)c(F)cc23)C(C)C1 (stereo not drawn) + CC(Nc1ccc2c(c1)OCCn1cc(N3C(=O)OCC3C(F)F)nc1-2)C(N)=O
pIC50 [1]: < 5.00
pIC50 [2]: < 5.00
pIC50 [3]: < 5.00
pIC50 [4]: < 5.00
pIC50 [5]: < 5.00
pIC50 [6]: < 5.00
viability, T/C [11]: 103%
viability, T/C [12]: 88.3%
viability, T/C (second compound 0.00316 µM, first compound 0.316 µM): 94.2%
viability, T/C (second compound 0.00316 µM, first compound 1 µM): 97.8%
viability, T/C (second compound 0.00316 µM, first compound 3.16 µM): 117%
viability, T/C (second compound 0.00316 µM, first compound 10 µM): 110%
viability, T/C [17]: 92.6%
viability, T/C [18]: 88%
viability, T/C (second compound 0.01 µM, first compound 0.316 µM): 88.3%
viability, T/C (second compound 0.01 µM, first compound 1 µM): 87.7%
viability, T/C (second compound 0.01 µM, first compound 3.16 µM): 80.3%
viability, T/C (second compound 0.01 µM, first compound 10 µM): 96.9%
viability, T/C [23]: 109%
viability, T/C [24]: 92.3%
viability, T/C [43]: 105%
viability, T/C [44]: 87.3%
viability, T/C [45]: 101%
viability, T/C [46]: 85.4%
viability, T/C [29]: 112%
viability, T/C [30]: 82.1%
viability, T/C [47]: 106%
viability, T/C [48]: 104%
viability, T/C [49]: 81.2%
viability, T/C [50]: 103%
viability, T/C [35]: 83.3%
viability, T/C [36]: 104%
viability, T/C [51]: 107%
viability, T/C [52]: 84.1%
viability, T/C [53]: 88.7%
viability, T/C [54]: 79.2%
viability, T/C [41]: 90.7%
viability, T/C [42]: 90%
viability, T/C [55]: 81.1%
viability, T/C [56]: 92.4%
viability, T/C [57]: 85.6%
viability, T/C [58]: 78%

Compound: CC(C)NCC(C(=O)N1CCN(c2ncnc3c2C(C)CC3O)CC1)c1ccc(Cl)cc1 (stereo not drawn)
viability, T/C (compound 0.1 µM): 92.5% [middle of 4 runs]
viability, T/C (compound 0.316 µM): 84.4% [middle of 4 runs]
viability, T/C (compound 3.16 µM): 88.5% [middle of 4 runs]
viability, T/C (compound 10 µM): 85.7% [middle of 4 runs]
pIC50 (curve of compound): < 5.00

Further lines, with some results ahead:

pIC50 [1]: < 7.00
pIC50 [2]: < 7.00
pIC50 [3]: < 7.00
pIC50 [4]: < 7.00
pIC50 [5]: < 7.00
pIC50 [6]: < 7.00
Compound: Cn1ncnc1[C@H]1c2n[nH]c(=O)c3cc(F)cc(c23)N[C@@H]1c1ccc(F)cc1 + CC(Nc1ccc2c(c1)OCCn1cc(N3C(=O)OCC3C(F)F)nc1-2)C(N)=O
viability, T/C [7]: 78.6%
viability, T/C [8]: 115%
viability, T/C [9]: 96.8%
viability, T/C [10]: 95.4%
viability, T/C [11]: 94.8%
viability, T/C [12]: 82.2%
viability, T/C [13]: 112%
viability, T/C [14]: 82.4%
viability, T/C [15]: 92.9%
viability, T/C [16]: 90.4%
viability, T/C [17]: 93.1%
viability, T/C [18]: 91.5%
viability, T/C [19]: 96.7%
viability, T/C [20]: 97.1%
viability, T/C [21]: 101%
viability, T/C [22]: 81.3%
viability, T/C [23]: 90.5%
viability, T/C [24]: 89.5%
viability, T/C [25]: 108%
viability, T/C [26]: 89%
viability, T/C [27]: 81.2%
viability, T/C [28]: 89.8%
viability, T/C [29]: 74.4%
viability, T/C [30]: 84.9%
viability, T/C [31]: 90.7%
viability, T/C [32]: 78%
viability, T/C [33]: 81.9%
viability, T/C [34]: 98.3%
viability, T/C [35]: 74.8%
viability, T/C [36]: 86.1%
viability, T/C [37]: 91.6%
viability, T/C [38]: 85.3%
viability, T/C [39]: 90%
viability, T/C [40]: 86.2%
viability, T/C [41]: 110%
viability, T/C [42]: 77.9%

pIC50 [1]: < 7.00
pIC50 [2]: < 7.00
pIC50 [3]: < 7.00
pIC50 [4]: < 7.00
pIC50 [5]: < 7.00
pIC50 [6]: < 7.00
Compound: CC(=O)c1c(C)c2cnc(Nc3ccc(N4CCNCC4)cn3)nc2n(C2CCCC2)c1=O + COc1c(OCCCN2CCOCC2)ccc2c3n(c(=NC(=O)c4cnc(N)nc4)nc12)CCN3
viability, T/C [7]: 95.5%
viability, T/C [8]: 94.7%
viability, T/C [9]: 90.6%
viability, T/C [10]: 98.7%
viability, T/C [11]: 105%
viability, T/C [12]: 84%
viability, T/C [13]: 104%
viability, T/C [14]: 90%
viability, T/C [15]: 86.7%
viability, T/C [16]: 94.3%
viability, T/C [17]: 97.6%
viability, T/C [18]: 96.5%
viability, T/C [19]: 82.7%
viability, T/C [20]: 94.4%
viability, T/C [21]: 91.4%
viability, T/C [22]: 86.7%
viability, T/C [23]: 89%
viability, T/C [24]: 69.2%
viability, T/C [25]: 65.9%
viability, T/C [26]: 77.2%
viability, T/C [27]: 78.2%
viability, T/C [28]: 70.8%
viability, T/C [29]: 70%
viability, T/C [30]: 55.6%
viability, T/C [31]: 61.4%
viability, T/C [32]: 68.6%
viability, T/C [33]: 61.4%
viability, T/C [34]: 57.9%
viability, T/C [35]: 66.9%
viability, T/C [36]: 53.4%
viability, T/C [37]: 59%
viability, T/C [38]: 58%
viability, T/C [39]: 58.7%
viability, T/C [40]: 58.4%
viability, T/C [41]: 62.9%
viability, T/C [42]: 55.7%
